# Values joined by “and” are separate entries in the source; they are usually repeats but may differ in a detail not shown here. Identical values can stand only once. Marks after values point to notes of the source that are not given here.
# How the values were obtained:
# hCB1 [1] = molecular target: T1, hCB1 (Homo sapiens, UniProt P21554); assay: Lance Ultra cAMP accumulation assay, CHO cells; assay type: cell-based; design: expressed in transfected cells; conditions: for normalised cAMP response, concentration-response (Figure2f), replicate values: log[Compound;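 as to all read-outs here: human CB1R stably expressed in CHO cells, ligands co-incubated with forskolin at room temperature, read-out is lowering of forskolin-stimulated cAMP accumulation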
# Description: The inhibition of forskolin-stimulated cAMP accumulation assays was carried out using PerkinElmer’s Lance Ultra cAMP kit following the manufacturer’s protocol. In brief, CHO cells stably expressing human CB1R (provided by the lab of Laura Bohn) were harvested by incubation with Versene (ThermoFisher Scientific, Waltham, MA) for 10 min, washed once with Hank’s Balanced Salt Solution, and resuspended in stimulation buffer at ~200 cells/μL density. The ligands at eight different concentrations (0.001-10,000 nM) in stimulation buffer (5 μL) containing forskolin (2 μM final concentration) were added to a 384-well plate followed by the cell suspension (5 μL; ~1000 cells/well). The plate was incubated for 30 min at room temperature. Eu-cAMP tracer (5 μL) and Ulight-anti-cAMP (5 μL) working solutions were then added to each well, and the plate was incubated at room temperature for an additional 60 min. Results were measured on a Perkin-Elmer EnVision plate reader. The EC50 values were determined by nonlinear regression analysis using Graphpad Prism 9 and are expressed as the mean of three experiments, each performed in triplicate.
# hCB1 [2] = molecular target: T1, hCB1; assay: bioSensAll ebBRET signaling profiling, hCB1; assay type: cell-based; design: host or cells: HEK293SL cells, transient PEI transfection
# T1 sequence (P21554 whole entry): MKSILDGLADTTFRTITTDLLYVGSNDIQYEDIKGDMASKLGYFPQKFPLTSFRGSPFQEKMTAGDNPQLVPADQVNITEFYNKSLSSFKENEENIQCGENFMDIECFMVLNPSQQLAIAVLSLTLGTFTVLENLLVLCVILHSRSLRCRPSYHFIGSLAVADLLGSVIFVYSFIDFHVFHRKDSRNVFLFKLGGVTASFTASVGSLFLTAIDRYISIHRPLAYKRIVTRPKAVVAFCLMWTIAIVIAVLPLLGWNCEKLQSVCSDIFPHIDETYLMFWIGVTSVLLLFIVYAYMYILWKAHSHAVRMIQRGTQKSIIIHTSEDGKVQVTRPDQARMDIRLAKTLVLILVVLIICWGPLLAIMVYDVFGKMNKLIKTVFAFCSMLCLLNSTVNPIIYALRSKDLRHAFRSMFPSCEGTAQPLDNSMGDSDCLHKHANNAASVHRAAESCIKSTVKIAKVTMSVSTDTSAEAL
smiles,measurement,setting,value
COC(=O)[C@@](C)(NC(=O)c1cc(C)n(-c2cccc(C(F)(F)F)c2)n1)c1cccs1 [‘1350],Lance Ultra cAMP pEC50,hCB1 [1],8.8 [8.4 – 9.2]
same,Emax,hCB1 [1]; CHO,77%
same,"agonism, inhibition of forskolin-stimulated cAMP","hCB1 [1]; hCB1-expressing cells, in words",agonists
same,"normalised cAMP response, concentration-response (Figure2f), replicate values",hCB1 [1]; M] -5,-4.858 and 11.635 and 22.5761 and 22.3192 and 16.0513
same,"normalised cAMP response, concentration-response (Figure2f), replicate values",hCB1 [1]; M] -6,0.02957 and 13.0032 and 24.8348 and 23.4809 and 19.7873
same,"normalised cAMP response, concentration-response (Figure2f), replicate values",hCB1 [1]; M] -7,-1.176 and 11.2775 and 31.1162 and 23.9321 and 21.5823
same,"normalised cAMP response, concentration-response (Figure2f), replicate values",hCB1 [1]; M] -8,4.023 and 6.478 and 36.7172 and 38.802 and 36.5532
same,"normalised cAMP response, concentration-response (Figure2f), replicate values",hCB1 [1]; M] -9,33.486 and 46.5508 and 80.4827 and 77.993 and 76.9862
same,"normalised cAMP response, concentration-response (Figure2f), replicate values",hCB1 [1]; M] -10,57.5574 and 85.1374 and 96.2204 and 101.985 and 96.4953
same,"normalised cAMP response, concentration-response (Figure2f), replicate values",hCB1 [1]; M] -11,67.5707 and 85.3574 and 95.6722 and 97.0187 and 98.6477
same,"normalised cAMP response, concentration-response (Figure2f), replicate values",hCB1 [1]; M] -12,65.6738 and 93.8429 and 115.239 and 106.805 and 95.2537
same,"fold more relatively efficacious than CP-55,940","hCB1 [2]; CB1R, Gi/o and G13 subtypes",approximately 2 fold
same,Barr2+GRK2 hCB1,hCB1 [2]; Log [Compound] (M) -4.22186,125.5* and 120.6* and 91.27*
same,G13 hCB1,hCB1 [2]; Log [Compound] (M) -4.22186,69.1809 and 43.3855
same,G15 hCB1,hCB1 [2]; Log [Compound] (M) -4.22186,108.417 and 97.817
same,Gi1 hCB1,hCB1 [2]; Log [Compound] (M) -4.22186,103.518 and 79.8531 and 99.2855
same,Gi2 hCB1,hCB1 [2]; Log [Compound] (M) -4.22186,106.254 and 114.578
same,GoB hCB1,hCB1 [2]; Log [Compound] (M) -4.22186,102.685 and 99.7877 and 104.661
same,Gq hCB1,hCB1 [2]; Log [Compound] (M) -4.22186,1156
same,Gs hCB1,hCB1 [2]; Log [Compound] (M) -4.22186,6234
same,Gz hCB1,hCB1 [2]; Log [Compound] (M) -4.22186,98.9486
same,Barr2+GRK2 hCB1,hCB1 [2]; Log [Compound] (M) -4.63927,67.7543 and 59.6502 and 97.3886
same,G15 hCB1,hCB1 [2]; Log [Compound] (M) -4.63927,104.285 and 89.1373
same,Gi1 hCB1,hCB1 [2]; Log [Compound] (M) -4.63927,100.256 and 80.2965 and 97.3658
same,Gi2 hCB1,hCB1 [2]; Log [Compound] (M) -4.63927,112.478 and 82.217
same,GoB hCB1,hCB1 [2]; Log [Compound] (M) -4.63927,94.4304 and 95.2911 and 109.92
same,Gq hCB1,hCB1 [2]; Log [Compound] (M) -4.63927,1096
same,Gs hCB1,hCB1 [2]; Log [Compound] (M) -4.63927,6120
same,Gz hCB1,hCB1 [2]; Log [Compound] (M) -4.63927,94.4339
same,G15 hCB1,hCB1 [2]; Log [Compound] (M) -5.05788,99.6047 and 93.8454
same,Gi1 hCB1,hCB1 [2]; Log [Compound] (M) -5.05788,101.042 and 84.715 and 96.0704
same,Gi2 hCB1,hCB1 [2]; Log [Compound] (M) -5.05788,100.013 and 77.0501
same,GoB hCB1,hCB1 [2]; Log [Compound] (M) -5.05788,90.3283 and 96.4543
same,Gq hCB1,hCB1 [2]; Log [Compound] (M) -5.05788,1019
same,Gs hCB1,hCB1 [2]; Log [Compound] (M) -5.05788,6223
same,Gz hCB1,hCB1 [2]; Log [Compound] (M) -5.05788,91.6266
same,G15 hCB1,hCB1 [2]; Log [Compound] (M) -5.47381,92.6315 and 93.0563
same,Gi1 hCB1,hCB1 [2]; Log [Compound] (M) -5.47381,98.0616 and 86.5046 and 101.002
same,Gi2 hCB1,hCB1 [2]; Log [Compound] (M) -5.47381,109.888 and 85.6163
same,GoB hCB1,hCB1 [2]; Log [Compound] (M) -5.47381,95.0781 and 98.6071
same,Gq hCB1,hCB1 [2]; Log [Compound] (M) -5.47381,1081
same,Gs hCB1,hCB1 [2]; Log [Compound] (M) -5.47381,6070
same,Gz hCB1,hCB1 [2]; Log [Compound] (M) -5.47381,90.4534
same,Barr2+GRK2 hCB1,hCB1 [2]; Log [Compound] (M) -5.89285,49.9477 and 47.2064 and 86.5049
same,G15 hCB1,hCB1 [2]; Log [Compound] (M) -5.89285,99.748 and 91.636
same,Gi1 hCB1,hCB1 [2]; Log [Compound] (M) -5.89285,97.1719 and 80.8667 and 101.065
same,Gi2 hCB1,hCB1 [2]; Log [Compound] (M) -5.89285,102.458 and 76.0168
same,GoB hCB1,hCB1 [2]; Log [Compound] (M) -5.89285,92.8683 and 94.9439 and 107.071
same,Gq hCB1,hCB1 [2]; Log [Compound] (M) -5.89285,1042
same,Gs hCB1,hCB1 [2]; Log [Compound] (M) -5.89285,6370
same,Gz hCB1,hCB1 [2]; Log [Compound] (M) -5.89285,91.8989
same,G15 hCB1,hCB1 [2]; Log [Compound] (M) -6.31878,101.969 and 92.5566
same,Gi1 hCB1,hCB1 [2]; Log [Compound] (M) -6.31878,107.685 and 74.7378 and 104.951
same,Gi2 hCB1,hCB1 [2]; Log [Compound] (M) -6.31878,103.614 and 79.7423
same,GoB hCB1,hCB1 [2]; Log [Compound] (M) -6.31878,90.0362 and 98.2252 and 101.933
same,Gq hCB1,hCB1 [2]; Log [Compound] (M) -6.31878,1039
same,Gs hCB1,hCB1 [2]; Log [Compound] (M) -6.31878,6417
same,Gz hCB1,hCB1 [2]; Log [Compound] (M) -6.31878,93.1455
same,G15 hCB1,hCB1 [2]; Log [Compound] (M) -6.72585,105.885 and 89.0321
same,Gi1 hCB1,hCB1 [2]; Log [Compound] (M) -6.72585,94.74 and 76.8441 and 99.3323
same,Gi2 hCB1,hCB1 [2]; Log [Compound] (M) -6.72585,103.093 and 82.0131
same,GoB hCB1,hCB1 [2]; Log [Compound] (M) -6.72585,94.0367 and 93.8848 and 98.7347
same,Gq hCB1,hCB1 [2]; Log [Compound] (M) -6.72585,1115
same,Gs hCB1,hCB1 [2]; Log [Compound] (M) -6.72585,6298
same,Gz hCB1,hCB1 [2]; Log [Compound] (M) -6.72585,84.3779
same,G15 hCB1,hCB1 [2]; Log [Compound] (M) -7.14267,103.856 and 93.4508
same,Gi1 hCB1,hCB1 [2]; Log [Compound] (M) -7.14267,91.7446 and 70.6519 and 99.504
same,Gi2 hCB1,hCB1 [2]; Log [Compound] (M) -7.14267,99.8505 and 80.4086
same,GoB hCB1,hCB1 [2]; Log [Compound] (M) -7.14267,91.8523 and 88.9368 and 103.009
same,Gq hCB1,hCB1 [2]; Log [Compound] (M) -7.14267,1002
same,Gs hCB1,hCB1 [2]; Log [Compound] (M) -7.14267,6288
same,Gz hCB1,hCB1 [2]; Log [Compound] (M) -7.14267,87.489 and 99.2286
same,Barr2+GRK2 hCB1,hCB1 [2]; Log [Compound] (M) -7.55284,47.1448 and 43.6966 and 56.3415
same,G15 hCB1,hCB1 [2]; Log [Compound] (M) -7.55284,99.9152 and 95.5813
same,Gi1 hCB1,hCB1 [2]; Log [Compound] (M) -7.55284,97.765 and 74.1201 and 97.5531
same,Gi2 hCB1,hCB1 [2]; Log [Compound] (M) -7.55284,96.1681 and 79.7288
same,GoB hCB1,hCB1 [2]; Log [Compound] (M) -7.55284,92.1444 and 89.4924 and 88.6102
same,Gq hCB1,hCB1 [2]; Log [Compound] (M) -7.55284,1106
same,Gs hCB1,hCB1 [2]; Log [Compound] (M) -7.55284,6295
same,Gz hCB1,hCB1 [2]; Log [Compound] (M) -7.55284,88.7355 and 97.954
same,G13 hCB1,hCB1 [2]; Log [Compound] (M) -8,59.5674 and 29.7847
same,G15 hCB1,hCB1 [2]; Log [Compound] (M) -8,98.7928 and 95.555
same,Gi1 hCB1,hCB1 [2]; Log [Compound] (M) -8,85.5759 and 80.7558 and 94.7595
same,Gi2 hCB1,hCB1 [2]; Log [Compound] (M) -8,103.924 and 86.4729
same,GoB hCB1,hCB1 [2]; Log [Compound] (M) -8,93.1096 and 93.0515 and 90.8837
same,Gq hCB1,hCB1 [2]; Log [Compound] (M) -8,998
same,Gs hCB1,hCB1 [2]; Log [Compound] (M) -8,6325
same,Gz hCB1,hCB1 [2]; Log [Compound] (M) -8,81.7172 and 92.9121
same,Barr2+GRK2 hCB1,hCB1 [2]; Log [Compound] (M) -8.22186,55.5534 and 36.0388 and 57.0671
same,G13 hCB1,hCB1 [2]; Log [Compound] (M) -8.22186,68.4414 and 35.9312

# — paper PMC11882969 (Nature Communications, 2025)
